# According to patent US20220257518A1, “LONG-LASTING FORMULATION CONTAINING RIVASTIGMINE, AND METHOD FOR PREPARING SAME” (priority 2019, published 2022):
# Assay: not given
# Conditions: cited from earlier work
row,Compound,Solubility in water [µg/mL]
1,"CCN(C)C(=O)Oc1cccc([C@H](C)N(C)C)c1 [rivastigmine freebase, rivastigmine]",≤ 5000

# Assay: Rivastigmine and pamoate contents in rivastigmine pamoate (HPLC)
# Assay type: physicochemical
# Conditions: HPLC 210 nm
# Protocol: In order to measure the contents of rivastigmine and pamoate of rivastigmine pamoate prepared in Example 1, the sample 10 mg was completely dissolved with dimethyl sulfoxide, and then was diluted into a mobile phase. The diluted solution 20 uL was injected to HPLC and was measured at a detection wavelength 210 nm. The column used in the present measurement was Inertsil ODS-3, 5 um, 4.6×250 mm, and the mobile phase was used by mixing phosphate buffer solution (pH 6.0) and acetonitrile at a ratio of 65:35 (v/v).
Compound,Pamoate content of rivastigmine pamoate [% by weight],Rivastigmine content of rivastigmine pamoate [% by weight]
rivastigmine pamoate [Sample 1-1],40.49,57.47
rivastigmine pamoate [Sample 1-2],40.47,52.45
rivastigmine pamoate [Sample 1-3],53.79,41.10
rivastigmine pamoate [Sample 1-4],68.93,32.19
